Test results as given in US9006388B2, “Covalent attachment of ligands to nucleophilic proteins guided by non-covalent” (priority 2003, dated 2015).

Tests used:
murine splenocytes = assay: Hapten CAL I reactivity with spleen cells (microscopy, flow cytometry); type: cell-based, BALB/c mouse
Text: BCR covalent reaction with hapten CALs. hapten CALs such as compound I (FIG. 19) react irreversibly with nucleophilic sites in conventional serine proteases and Abs (3,35,44-47). Methods for synthesis of this compound, preparation of B cells from mice, flow cytometric analysis of binding to the cells and electrophoretic measurement of covalent binding to Ig subunits are described in refs 3,35,48. To evaluate the nucleophilic reactivity expressed on the surface of B cells in the preimmune repertoire (viz., the repertoire developed spontaneously without purposeful immunological challenge), viable splenocytes from BALB/c mice were treated with hapten CAL I. The control compound II is identical in structure to hapten CAL I, except that the phosphonate group is not esterified, which results in loss of covalent reactivity with nucleophilic residues (3,35). […] Flow cytometry confirmed the microscopy results. […] In 3 repeat experiments, the proportion of hapten CAL I-stained cells that were positive for the B cell marker CD19 was 82±4% (FIG. 20B). […] Most of the CAL fluorescence was restricted to the surfaces of the B cells (FIG. 20F).

calmodulin = calmodulin (Homo sapiens, UniProt P0DP23); assay: Irreversible CAL binding by calmodulin
trypsin = target: T1, trypsin (Sus scrofa, UniProt P00761); assay: Irreversible hapten CAL binding by trypsin; parameters: species or system porcine; settings: hapten CAL 100 μM
T1 construct: purchased Sigma type IX

gp120 (MN strain) = target: T2, gp120 (MN strain) (Human immunodeficiency virus type 1 group M subtype B, UniProt P05877); assay: Irreversible hapten CAL binding by gp120; parameters: species or system HIV
T2 construct: purchased

[1] = system: human polyclonal IgG HS-2; assay: Irreversible inhibition of HS-2 IgG-catalyzed [Tyr10-125I]-VIP cleavage; type: biochemical; settings: IgG 2 μM preincubated 16 h, unreacted CAL removed
IgG = type: biochemical, human
human IgG = type: binding
plasma proteins = assay: CAL reaction in the presence of human plasma; type: binding; settings: human plasma 1% v/v, CAL 10 μM, 1 h
[2] = system: monoclonal anti-VIP IgG clone c23.5; assay: Covalent CAL binding by monoclonal anti-VIP IgG c23.5
nine purified proteins = assay: Screening of purified proteins for irreversible hapten CAL binding; settings: protein 1 μM, CAL 0.5 mM, 16 h, 37° C.
[3] = flow cytometry, 100 μM, 4 hours

T1 sequence (P00761 9-231): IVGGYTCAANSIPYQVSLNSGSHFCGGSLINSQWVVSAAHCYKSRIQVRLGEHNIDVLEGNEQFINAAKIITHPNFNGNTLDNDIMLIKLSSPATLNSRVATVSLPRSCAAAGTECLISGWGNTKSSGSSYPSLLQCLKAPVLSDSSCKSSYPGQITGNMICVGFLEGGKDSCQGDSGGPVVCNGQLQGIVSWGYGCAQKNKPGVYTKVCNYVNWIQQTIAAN

Molecule | loss of viability of cells (trypan blue exclusion) (murine splenocytes) | proportion of hapten CAL I-stained cells positive for CD19 (murine splenocytes; 3 repeat experiments) | cells displaying intense staining (murine splenocytes; UV microscope, 400 lymphocytes counted, N 3) | cells with fluorescence intensities exceeding compound II-treated cells (murine splenocytes; [3]) | subpopulation with very high fluorescence intensity (murine splenocytes; [3]) | second-order rate constant for reaction with calmodulin (calmodulin; calmodulin 1 μM, 3 10 μM or 1 0.5 mM, 37° C.) | velocity of covalent I adduct formation with trypsin (trypsin) | Kd (gp120 (MN strain)) | first-order rate constant of covalent adduct formation k2 (gp120 (MN strain); pH 7.4, 37° C.) | IC50 [1] | inhibition of IgG-catalyzed peptide-MCA cleavage (IgG) | velocity for IgG relative to trypsin (human IgG) | velocity of covalent I adduct formation with IgG (human IgG) | reaction with plasma proteins (plasma proteins) | Vapp values for the two subunits of anti-VIP Ab [2] | proteins forming irreversible adducts (nine purified proteins) | inhibition of 3-calmodulin binding (calmodulin; VIP 100 μM, 3 10 μM)
N=C(N)c1ccc(C(NC(=O)CCCCCNC(=O)CCCC[C@@H]2SC[C@@H]3NC(=O)N[C@@H]32)P(=O)(Oc2ccccc2)Oc2ccccc2)cc1 (some centres unmarked) [hapten CAL I, Diphenyl N-(6-biotinamidohexanoyl)amino(4-amidinophenyl)methanephosphonate] | No loss of viability | 82±4% | 11±2 | Seventy nine | 14% | 0.00353 ± 0.000283 M⁻¹ s⁻¹ | 11.9±0.6 AAU/min | 710 ± 500 µM | 0.015 ± 0.007 min⁻¹ | 36 µM | inhibited | 14.5 fold | 172.7±14.2 AAU/min | little or no adduct formation | nearly equivalent | Seven of the nine | 
VIP: 28 amino acid peptide, devoid of the phosphonate group [reference compound] |  |  |  |  |  |  |  |  |  |  |  |  |  |  |  |  | 65%
